Reference: PubChem BioAssay (NCI)
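Briefly, cells in 96-well plates were exposed to five compound concentrations for 48 h, and endpoints were estimated by linear interpolation. TGI: concentration producing complete growth inhibition.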

Columns and labels:
Test in all cases: NCI tumour cell line growth inhibition, 48 h
[1] = test system: MCF7 breast
[2] = test system: MDA-MB-231 breast
[3] = test system: MDA-MB-435
[4] = test system: T-47D breast
[5] = test system: BT-549 breast
[6] = test system: KM20L2 colon
[7] = test system: LXFL 529 NSCLC
[8] = test system: M19-MEL melanoma
[9] = test system: RXF-631 renal
[10] = test system: P388 leukemia
[11] = test system: P388/ADR leukemia
[12] = test system: SN12K1 renal

SMILES | TGI [1] [µM] | TGI [2] [µM] | TGI [3] [µM] | TGI [4] [µM] | TGI [5] [µM] | TGI [6] [µM] | TGI [7] [µM] | TGI [8] [µM] | TGI [9] [µM] | TGI [10] [µM] | TGI [11] [µM] | TGI [12] [µM]
Cc1ccc(Nc2nc(N)nc3c2ncn3C2OC(CO)C(O)C2O)cc1 (stereo not drawn) | > 100 | > 100 | > 100 | > 100 | – | – | – | – | – | – | – | –
NC(CCP(=O)(O)CCC1C=CC=CC1)C(=O)O (stereo not drawn) | – | > 100 | > 100 | > 100 | > 100 | – | – | – | – | – | – | –
CC(C)(C)[Si](C)(C)OCC1CCC(n2cnc3c(N)ncnc32)O1 (stereo not drawn) | – | > 100 | 85.2 | > 100 | 87 | – | – | – | – | – | – | –
CC1=CC(=O)C(=O)C2=C1OC1(C2)C(C)CCC2C3(C)CCC(O)C(C)(C)C3CCC21C (stereo not drawn) | – | – | – | – | – | 37.4 | 33.6 | 34.4 | – | – | – | –
N=C(N)c1csc([C@@H]2O[C@H](CO)[C@@H](O)[C@H]2O)n1 | – | – | – | – | – | – | > 100 | > 100 | > 100 | – | – | –
O=C(O)C1Cc2c([nH]c3ccccc23)C=N1 (stereo not drawn) | > 100 | – | – | – | – | > 100 | – | > 100 | – | > 100 | > 100 | –
COC1CC(OC2CCC3(C)C(CCC45CCC(C6=CC(=O)OC6)C(C)(CCC43)C5=O)C2)OC(C)C1O (stereo not drawn) | > 100 | > 100 | > 100 | > 100 | 55.3 | – | – | – | – | – | – | –
NNc1nc2ccccc2s1 | > 100 | > 100 | > 100 | > 100 | > 100 | – | – | – | – | – | – | –
O=C1C(=O)c2ccccc2C(O)=C1CN(CCCl)CCCl | – | – | – | – | – | > 100 | > 100 | > 100 | > 100 | – | – | –
CC12CCC(C(=O)N3CC=CCC3)(OC1=O)C2(C)C (stereo not drawn) | > 100 | – | – | – | – | > 100 | – | > 100 | – | > 100 | > 100 | > 100
